PubChem BioAssay AID2060507 (Molecular Pharmacology Branch, DTP, NCI, 2025)
pIC50: −log10 of the molar value. Values belong to the compound of their own block, whether it stands above or below them.

Test system: 519858-162-T-J1-PDC complex spheroid viability
Assay: Anticancer human tumor 519858-162-T-J1-PDC patient-derived colon adenocarcinoma cell line growth inhibition [GQUAD]
Settings: for pIC50: curve of first compound; for viability, T/C: stronger effect = lower value
Procedure, shortened: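 Viability of tumor cells grown as complex spheroids with endothelial and stromal cells, exposed to drug combinations. Top concentration at or near clinical Cmax (else 10 microM), diluted in half-log increments.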

[1] = second compound 0.0316 µM, first compound 0.0316 µM
[2] = second compound 0.0316 µM, first compound 0.1 µM
[3] = second compound 0.0316 µM, first compound 0.316 µM
[4] = second compound 0.0316 µM, first compound 1 µM
[5] = second compound 0.0316 µM, first compound 3.16 µM
[6] = second compound 0.0316 µM, first compound 10 µM
[7] = second compound 0.1 µM, first compound 0.0316 µM
[8] = second compound 0.1 µM, first compound 0.1 µM
[9] = second compound 0.1 µM, first compound 0.316 µM
[10] = second compound 0.1 µM, first compound 1 µM
[11] = second compound 0.1 µM, first compound 3.16 µM
[12] = second compound 0.1 µM, first compound 10 µM
[13] = second compound 0.316 µM, first compound 0.0316 µM
[14] = second compound 0.316 µM, first compound 0.1 µM
[15] = second compound 0.316 µM, first compound 0.316 µM
[16] = second compound 0.316 µM, first compound 1 µM
[17] = second compound 0.316 µM, first compound 3.16 µM
[18] = second compound 0.316 µM, first compound 10 µM
[19] = second compound 1 µM, first compound 0.0316 µM
[20] = second compound 1 µM, first compound 0.1 µM
[21] = second compound 1 µM, first compound 0.316 µM
[22] = second compound 1 µM, first compound 1 µM
[23] = second compound 1 µM, first compound 3.16 µM
[24] = second compound 1 µM, first compound 10 µM
[25] = second compound 3.16 µM, first compound 0.0316 µM
[26] = second compound 3.16 µM, first compound 0.1 µM
[27] = second compound 3.16 µM, first compound 0.316 µM
[28] = second compound 3.16 µM, first compound 1 µM
[29] = second compound 3.16 µM, first compound 3.16 µM
[30] = second compound 3.16 µM, first compound 10 µM
[31] = second compound 10 µM, first compound 0.0316 µM
[32] = second compound 10 µM, first compound 0.1 µM
[33] = second compound 10 µM, first compound 0.316 µM
[34] = second compound 10 µM, first compound 1 µM
[35] = second compound 10 µM, first compound 3.16 µM
[36] = second compound 10 µM, first compound 10 µM
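For viability, T/C in this document: 100% = DMSO vehicle control viability.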

pIC50 (second compound 0.0316 µM): 5.67 | pIC50 (second compound 0.1 µM): 5.70 | pIC50 (second compound 0.316 µM): 5.84 | pIC50 (second compound 1 µM): 6.58 | pIC50 (second compound 3.16 µM): > 7.50 | pIC50 (second compound 10 µM): 7.50
Compound: CC(C)(O)C1CCC(Nc2ccc3ncc(-c4cccc(C(F)(F)F)c4)n3n2)CC1 (stereo not drawn) + Cc1cnc(CNC(=O)c2c(=O)c3ccc(N4CCCN(C)CC4)nc3n3c2sc2ccccc23)cn1
viability, T/C [1]: 101% | viability, T/C [2]: 111% | viability, T/C [3]: 93.2% | viability, T/C [4]: 103% | viability, T/C [5]: 11% | viability, T/C [6]: 36.5% | viability, T/C [7]: 87.6% | viability, T/C [8]: 95.5% | viability, T/C [9]: 107% | viability, T/C [10]: 105% | viability, T/C [11]: 8.82% | viability, T/C [12]: 24.6% | viability, T/C [13]: 107% | viability, T/C [14]: 72.4% | viability, T/C [15]: 63.5% | viability, T/C [16]: 80.9% | viability, T/C [17]: 20.8% | viability, T/C [18]: 31.2% | viability, T/C [19]: 71.1% | viability, T/C [20]: 68.8% | viability, T/C [21]: 42.1% | viability, T/C [22]: 48.5% | viability, T/C [23]: 42.4% | viability, T/C [24]: 52.3% | viability, T/C [25]: 37.5% | viability, T/C [26]: 43.1% | viability, T/C [27]: 50.8% | viability, T/C [28]: 47.1% | viability, T/C [29]: 31.4% | viability, T/C [30]: 20.8% | viability, T/C [31]: 36.4% | viability, T/C [32]: 45.3% | viability, T/C [33]: 52.3% | viability, T/C [34]: 64.7% | viability, T/C [35]: 9.24% | viability, T/C [36]: 0.75%

Compound: CC1COCCN1c1cc(C2(S(C)(=N)=O)CC2)nc(-c2ccnc3[nH]ccc23)n1 (stereo not drawn) + CN(C)c1ccc(Nc2c3ccc(NC(=O)CCN4CCCC4)cc3nc3cc(NC(=O)CCN4CCCC4)ccc23)cc1
pIC50 (second compound 0.0316 µM): < 5.00 | pIC50 (second compound 0.1 µM): < 5.00 | pIC50 (second compound 0.316 µM): < 5.00 | pIC50 (second compound 1 µM): < 5.00 | pIC50 (second compound 3.16 µM): < 5.00 | pIC50 (second compound 10 µM): < 5.00 | viability, T/C [1]: 115% | viability, T/C [2]: 102% | viability, T/C [3]: 119% | viability, T/C [4]: 115% | viability, T/C [5]: 98.3% | viability, T/C [6]: 77.7% | viability, T/C [7]: 133% | viability, T/C [8]: 124% | viability, T/C [9]: 125% | viability, T/C [10]: 110% | viability, T/C [11]: 94.2% | viability, T/C [12]: 70% | viability, T/C [13]: 123% | viability, T/C [14]: 108% | viability, T/C [15]: 81.1% | viability, T/C [16]: 79.7% | viability, T/C [17]: 91.1% | viability, T/C [18]: 100% | viability, T/C [19]: 88.2% | viability, T/C [20]: 88.3% | viability, T/C [21]: 90.8% | viability, T/C [22]: 105% | viability, T/C [23]: 86.5% | viability, T/C [24]: 100% | viability, T/C [25]: 93.3% | viability, T/C [26]: 60.1% | viability, T/C [27]: 93.9% | viability, T/C [28]: 111% | viability, T/C [29]: 84.8% | viability, T/C [30]: 66.1% | viability, T/C [31]: 79.3% | viability, T/C [32]: 62.7% | viability, T/C [33]: 82.8% | viability, T/C [34]: 99.5% | viability, T/C [35]: 82.5% | viability, T/C [36]: 84.8%

Compound: CC1COCCN1c1cc(-c2ccnn2C)c2ccnc(-c3ccn[nH]3)c2n1 (stereo not drawn) + CN(C)c1ccc(Nc2c3ccc(NC(=O)CCN4CCCC4)cc3nc3cc(NC(=O)CCN4CCCC4)ccc23)cc1
pIC50 (second compound 0.0316 µM): 5.37 | pIC50 (second compound 0.1 µM): 5.36 | pIC50 (second compound 0.316 µM): 5.15 | pIC50 (second compound 1 µM): 5.32 | pIC50 (second compound 3.16 µM): 5.27 | pIC50 (second compound 10 µM): 5.35 | viability, T/C [1]: 87.2% | viability, T/C [2]: 125% | viability, T/C [3]: 88% | viability, T/C [4]: 101% | viability, T/C [5]: 54% | viability, T/C [6]: 38% | viability, T/C [7]: 78.2% | viability, T/C [8]: 106% | viability, T/C [9]: 86.4% | viability, T/C [10]: 124% | viability, T/C [11]: 55.4% | viability, T/C [12]: 36.1% | viability, T/C [13]: 91.3% | viability, T/C [14]: 86.8% | viability, T/C [15]: 79.3% | viability, T/C [16]: 101% | viability, T/C [17]: 79.6% | viability, T/C [18]: 37.4% | viability, T/C [19]: 100% | viability, T/C [20]: 85.7% | viability, T/C [21]: 73.8% | viability, T/C [22]: 102% | viability, T/C [23]: 63.4% | viability, T/C [24]: 25.3% | viability, T/C [25]: 87.5% | viability, T/C [26]: 83.9% | viability, T/C [27]: 106% | viability, T/C [28]: 92.4% | viability, T/C [29]: 58.7% | viability, T/C [30]: 39.5% | viability, T/C [31]: 71.2% | viability, T/C [32]: 101% | viability, T/C [33]: 73.5% | viability, T/C [34]: 100% | viability, T/C [35]: 51.1% | viability, T/C [36]: 47.3%

pIC50 (second compound 0.0316 µM): < 5.00 | pIC50 (second compound 0.1 µM): < 5.00 | pIC50 (second compound 0.316 µM): 5.07 | pIC50 (second compound 1 µM): 6.09 | pIC50 (second compound 3.16 µM): > 7.50 | pIC50 (second compound 10 µM): > 7.50
Compound: COc1ncnc(C2CC2)c1-c1ncc2cnn(Cc3ccc(-c4nc(C(F)(F)F)cn4C(C)C)cc3)c2n1 + Cc1cnc(CNC(=O)c2c(=O)c3ccc(N4CCCN(C)CC4)nc3n3c2sc2ccccc23)cn1
viability, T/C [1]: 87.7% | viability, T/C [2]: 65.6% | viability, T/C [3]: 88.7% | viability, T/C [4]: 79.3% | viability, T/C [5]: 90.6% | viability, T/C [6]: 67.6% | viability, T/C [7]: 85.6% | viability, T/C [8]: 74.8% | viability, T/C [9]: 97.7% | viability, T/C [10]: 77.9% | viability, T/C [11]: 97.2% | viability, T/C [12]: 54% | viability, T/C [13]: 72.4% | viability, T/C [14]: 54.8% | viability, T/C [15]: 64.1% | viability, T/C [16]: 67.5% | viability, T/C [17]: 45.5% | viability, T/C [18]: 50.4% | viability, T/C [19]: 55.7% | viability, T/C [20]: 54.1% | viability, T/C [21]: 47.6% | viability, T/C [22]: 47.8% | viability, T/C [23]: 49.1% | viability, T/C [24]: 53.3% | viability, T/C [25]: 49.2% | viability, T/C [26]: 40.1% | viability, T/C [27]: 46% | viability, T/C [28]: 30.3% | viability, T/C [29]: 63.7% | viability, T/C [30]: 48.6% | viability, T/C [31]: 35.8% | viability, T/C [32]: 55.3% | viability, T/C [33]: 48.5% | viability, T/C [34]: 26.8% | viability, T/C [35]: 47.6% | viability, T/C [36]: 90.8%
